Results published in patent US9914723B2, “Small molecule inhibitors of Mcl-1 and uses thereof” (THE REGENTS OF THE UNIVERSITY OF MICHIGAN, priority 2012, dated 2018).

Columns and labels:
Mcl-1 [1] = target: T1, Mcl-1 (Homo sapiens, UniProt Q07820); conditions: cited from earlier work
Mcl-1 [2] = target: T1, Mcl-1; assay: fluorescence polarizing binding assay, binding to Mcl-1; conditions: for IC50: fluorescence polarizing binding assay; for fold decrease of binding affinity to Mcl-1: in comparison with UMI-1033; for binding / inhibition of Mcl-1 compared with UMI-1033, in words: 4-methyl-1-piperazinyl group of UMI-1033 replaced
Method: FIGS. 1, 2, 3, and 4 show various compounds for Formula I having various R1, R2, R3, R4, R5, R6, R7 and R8 groups, and related structure activity relationship (SAR) for each respective compound (IC50 values were determined with fluorescence polarizing binding assay).

Mcl-1 [3] = target: T1, Mcl-1; assay: Binding affinity against Bcl-2 family anti-apoptotic proteins: Mcl-1
A1 = target: T2, A1 (Homo sapiens, UniProt Q16548); assay: Binding affinity against Bcl-2 family anti-apoptotic proteins: A1
T2 sequence (Q16548 1-175): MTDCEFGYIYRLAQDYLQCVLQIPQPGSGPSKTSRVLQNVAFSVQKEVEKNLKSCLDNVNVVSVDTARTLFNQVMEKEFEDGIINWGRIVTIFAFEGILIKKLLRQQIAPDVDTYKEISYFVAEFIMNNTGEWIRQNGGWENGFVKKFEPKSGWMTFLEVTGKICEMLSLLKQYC

Bcl-w = target: T3, Bcl-w (Homo sapiens, UniProt Q92843); assay: Binding affinity against Bcl-2 family anti-apoptotic proteins: Bcl-w
T3 sequence (Q92843 1-193): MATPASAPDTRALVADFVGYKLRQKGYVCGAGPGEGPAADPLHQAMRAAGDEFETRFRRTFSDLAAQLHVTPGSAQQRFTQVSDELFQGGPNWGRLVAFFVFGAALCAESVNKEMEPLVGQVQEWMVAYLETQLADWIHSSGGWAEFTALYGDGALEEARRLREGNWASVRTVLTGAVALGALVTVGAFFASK

Bcl-2 = Bcl-2 (Homo sapiens, UniProt P10415); assay: Binding affinity against Bcl-2 family anti-apoptotic proteins: Bcl-2
Bcl-xL = Bcl-xL (Homo sapiens, UniProt Q07817); assay: Binding affinity against Bcl-2 family anti-apoptotic proteins: Bcl-xL
HL-60 = assay: Cellular activity against leukemia human tumor cell lines: HL-60; format: cell-based; conditions: AML-derived cell line
Method: (§1) Acute myeloid leukemia (AML) frequently relapses after initial treatment. Drug resistance in AML has been attributed to high levels of the anti-apoptotic Bcl-2 family proteins. Indeed, Mcl-1 is essential for development and survival of acute myelogenous leukemia cells. Therefore the cellular activity of Mcl-1 inhibitors against AML human cancer cell lines was tested. Blockade of Mcl-1 by these inhibitors (see Table 3) killed AML-derived cell lines, HL-60 and MV4-11, but had less impact on the human CML-derived (K562) cell line.

MV4-11 = assay: Cellular activity against leukemia human tumor cell lines: MV4-11; format: cell-based; conditions: AML-derived cell line
Method: as §1

[4] = target: T4, cellular, endogenous Mcl-1 protein (Homo sapiens, UniProt Q07820); assay: Pull-down assay with biotin-labeled Noxa BH3 peptide (BL-Noxa) in 2LMP cell lysate; format: binding
T4 construct: endogenous in cells; host or cells: 2LMP cancer cell line (lysate)

K562 = assay: Cellular activity against leukemia human tumor cell lines: K562; format: cell-based; conditions: human CML-derived cell line
Method: as §1

HL-60 cell line = assay: Induction of apoptosis in HL-60, flow cytometry with Annexin V and propidium iodide double staining; caspase-3 activation; format: cell-based, human
Description: To gain insights into the underlying mechanism of action for the cell growth inhibition of this class Mcl-1 inhibitors, the HL-60 cell line was selected and investigated if apoptosis contributes to the antiproliferative effect. Induction of apoptosis was monitored by flow cytometry using Annexin V and propidium iodide double staining.

MEF WT cells = assay: Cell death in wild-type MEF cells; format: cell-based, mouse
Method: (§2) It is known that apoptotic effectors Bak and Bax can be suppressed by multidomain anti-apoptotic proteins such as Mcl-1. To interrogate the mechanism of action, the activity of several novel Mcl-1 inhibitors were evaluated in mouse embryonic fibroblast (MEF) cells that included wild-type (WT) as well as cells deficient in Bax/Bak (DKO).

MEF DKO cells = assay: Cell death in Bax/Bak deficient (DKO) MEF cells; format: cell-based, mouse
Method: as §2

Sequence of Bcl-2 (P10415 whole entry, species assumed): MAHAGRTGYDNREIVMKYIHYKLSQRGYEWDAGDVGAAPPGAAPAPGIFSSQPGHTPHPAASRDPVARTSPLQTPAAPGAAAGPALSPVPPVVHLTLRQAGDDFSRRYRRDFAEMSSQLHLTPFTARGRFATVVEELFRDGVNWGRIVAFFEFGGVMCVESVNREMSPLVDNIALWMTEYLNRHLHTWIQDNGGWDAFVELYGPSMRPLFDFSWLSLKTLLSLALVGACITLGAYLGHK
T1 sequence (Q07820 whole entry, species assumed): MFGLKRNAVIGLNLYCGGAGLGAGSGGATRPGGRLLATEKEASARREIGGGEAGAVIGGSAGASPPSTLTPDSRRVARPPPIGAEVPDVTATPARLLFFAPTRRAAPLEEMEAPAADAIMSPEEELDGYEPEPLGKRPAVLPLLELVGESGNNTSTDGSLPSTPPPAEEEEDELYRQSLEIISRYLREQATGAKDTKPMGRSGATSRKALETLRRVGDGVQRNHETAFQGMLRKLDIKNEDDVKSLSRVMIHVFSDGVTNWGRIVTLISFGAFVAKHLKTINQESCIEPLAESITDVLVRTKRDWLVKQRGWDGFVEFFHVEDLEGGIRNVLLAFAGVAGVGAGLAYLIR
Sequence of Bcl-xL (Q07817 whole entry, species assumed): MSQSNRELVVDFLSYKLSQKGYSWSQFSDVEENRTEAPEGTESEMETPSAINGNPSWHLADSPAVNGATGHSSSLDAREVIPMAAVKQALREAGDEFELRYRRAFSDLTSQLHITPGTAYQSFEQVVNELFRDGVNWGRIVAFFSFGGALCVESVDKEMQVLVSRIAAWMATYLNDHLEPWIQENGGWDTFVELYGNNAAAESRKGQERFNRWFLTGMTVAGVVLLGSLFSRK
T4 sequence (Q07820 whole entry): as the sequence (Q07820 whole entry, species assumed) above

Row | SMILES | Ki (Mcl-1 [3]) [µM] | Ki (A1) [µM] | Ki (Bcl-w) [µM] | Ki (Bcl-2) [µM] | Ki (Bcl-xL) [µM] | EC50 (HL-60) [µM] | EC50 (MV4-11) [µM] | EC50 (K562) [µM] | further results
1 | CN(C)CC[C@H](CSc1ccccc1)Nc1ccc(S(=O)(=O)NC(=O)c2ccc(N3CCN(Cc4ccccc4-c4ccc(Cl)cc4)CC3)cc2)cc1[N+](=O)[O-] [ABT-737] | – | – | – | – | – | – | – | – | binding to Mcl-1 (Mcl-1 [1]): fails to bind
2 | CCOC(=O)c1c(C)oc2c1c(C(c1ccc(F)cc1)N1CCN(C)CC1)c(O)c1ccccc12 (stereo not drawn) [UMI-118] | – | – | – | – | – | – | – | – | IC50 (Mcl-1 [2]): 0.19 µM; fold decrease of binding affinity to Mcl-1 (Mcl-1 [2]): 3 fold
3 | CCOC(=O)c1c(C)oc2c1c(C(c1cccc(F)c1)N1CCN(C)CC1)c(O)c1ccccc12 (stereo not drawn) [UMI-1003] | – | – | – | – | – | – | – | – | IC50 (Mcl-1 [2]): 0.2 µM
4 | CCOC(=O)c1c(C)oc2c1c(C(c1ccncc1)N1CCOCC1)c(O)c1ccccc12 (stereo not drawn) [UMI-1007] | 0.02 | > 25 | > 30 | > 30 | > 30 | 16 | 12.8 | – | disruption of the interactions between BL-Noxa and cellular Mcl-1 [4]: effectively disrupted the interactions between BL-Noxa and cellular Mcl-1
5 | CCOC(=O)c1c(C)oc2c1c(C(c1ccncc1)N1CCN(CC)CC1)c(O)c1ccccc12 (stereo not drawn) [UMI-1008] | – | – | – | – | – | – | – | – | binding / inhibition of Mcl-1 compared with UMI-1033, in words (Mcl-1 [2]): kept same
6 | CCOC(=O)c1c(C)oc2c1c(C(c1ccncc1)N1CCN(C(C)C)CC1)c(O)c1ccccc12 (stereo not drawn) [UMI-1009] | 0.015 | > 25 | > 30 | > 30 | > 30 | 3.98 | 7.15 | > 30 | binding / inhibition of Mcl-1 compared with UMI-1033, in words (Mcl-1 [2]): kept same; caspase-3 activation (HL-60 cell line; HL-60): activation of caspase-3; induction of apoptosis (HL-60 cell line; HL-60, 5 μM): 37%; induction of apoptosis (HL-60 cell line; HL-60, 10 μM): 57%
7 | CCOC(=O)c1c(C)oc2c1c(C(c1ccncc1)N1CCc3ccccc3C1)c(O)c1ccccc12 (stereo not drawn) [UMI-1011] | – | – | – | – | – | – | – | – | IC50 (Mcl-1 [2]): 0.19 µM; fold decrease of binding affinity to Mcl-1 (Mcl-1 [2]): 3 fold
8 | CCOC(=O)c1c(C)oc2c1c(C(c1ccnc(Cl)c1)N1CCOCC1)c(O)c1ccccc12 (stereo not drawn) [UMI-1026] | 0.03 | > 25 | > 30 | > 30 | > 30 | – | – | – | –
9 | CCOC(=O)c1c(C)oc2c1c(C(c1ccncc1)N1CCN(C)CC1)c(O)c1ccccc12 (stereo not drawn) [UMI-1033] | 0.02 | > 25 | > 30 | 16.7 | > 30 | 11.3 | 7.05 | > 30 | –
10 | COC(=O)c1c(C)oc2c1c(C(c1ccncc1)N1CCN(C)CC1)c(O)c1ccccc12 (stereo not drawn) [UMI-1035] | 0.015 | > 25 | 28 | 13.8 | > 30 | – | – | – | EC50 (HL-60; Homo sapiens, HL-60): 12.3 µM; EC50 (MV4-11; Homo sapiens, MV4-11): 6.16 µM; EC50 (K562; K562): 24.6 µM; cell death in MEF WT (MEF WT cells): induced cell death; cell death in MEF DKO (MEF DKO cells): not in MEF DKO cells
11 | COC(=O)c1c(C)oc2c1c(C(c1ccncc1)N1CCOCC1)c(O)c1ccccc12 (stereo not drawn) [UMI-1036] | – | – | – | – | – | 16.2 | 8.22 | > 30 | cell death in MEF WT (MEF WT cells): induced cell death; cell death in MEF DKO (MEF DKO cells): not in MEF DKO cells
12 | CCOC(=O)CN1CCN(C(c2ccncc2)c2c(O)c3ccccc3c3oc(C)c(C(=O)OCC)c23)CC1 (stereo not drawn) [UMI-1042] | – | – | – | – | – | 14.7 | 10.1 | > 30 | cell death in MEF WT (MEF WT cells): induced cell death; cell death in MEF DKO (MEF DKO cells): not in MEF DKO cells
